Columns and labels:
[1] = system: Secale cereale; experiment: Change in alkylresorcinol homologue composition in dry shoots of etiolated Secale cereale (rye) seedlings grown from compound-treated seeds at 15 +/-2 degC assessed as C25:0 content at 46 uM by GC/EI-MS analysis (reference value: 0.11 mg/kg dry weight); type: functional
[2] = system: Secale cereale; experiment: Change in alkylresorcinol homologue composition in dry shoots of green Secale cereale (rye) seedlings grown from compound-treated seeds at 29 +/-2 degC assessed as C21:1 content at 46 uM by GC/EI-MS analysis (reference value: 0.04 mg/kg dry weight); type: functional
[3] = system: Secale cereale; experiment: Toxicity against green Secale cereale (rye) seedlings assessed as dry biomass of seedling grown at 29 +/-2 degC at 46 uM measured at 5 days after compound-treated seed germination (reference value: 2.32 +/-0.05 g); type: organism-based; conditions: in vivo, 120 h
[4] = system: Secale cereale; experiment: Toxicity against green Secale cereale (rye) seedlings assessed as fresh biomass of seedling grown at 15 +/-2 degC at 46 uM measured at 5 days after compound-treated seed germination (reference value: 10.70 +/-0.28 g); type: organism-based; conditions: in vivo, 120 h
[5] = system: Secale cereale; experiment: Toxicity against green Secale cereale (rye) seedlings assessed as fresh biomass of seedling grown at 22 +/-2 degC at 46 uM measured at 5 days after compound-treated seed germination (reference value: 20.76 +/-0.81 g); type: organism-based; conditions: in vivo, 120 h
[6] = system: Secale cereale; experiment: Change in alkylresorcinol homologue composition in dry shoots of green Secale cereale (rye) seedlings grown from compound-treated seeds at 29 +/-2 degC assessed as C17:0 content at 46 uM by GC/EI-MS analysis (reference value: 0.75 mg/kg dry weight); type: functional
[7] = system: Secale cereale; experiment: Change in alkylresorcinol homologue composition in dry shoots of green Secale cereale (rye) seedlings grown from compound-treated seeds at 15 +/-2 degC assessed as C17:1 content at 46 uM by GC/EI-MS analysis (reference value: 0.17 mg/kg dry weight); type: functional
[8] = system: Secale cereale; experiment: Change in alkylresorcinol homologue composition in dry shoots of green Secale cereale (rye) seedlings grown from compound-treated seeds at 15 +/-2 degC assessed as C15:0 content at 46 uM by GC/EI-MS analysis (reference value: 0.24 mg/kg dry weight); type: functional
[9] = system: Secale cereale; experiment: Toxicity against etiolated Secale cereale (rye) seedlings assessed as fresh biomass of seedling grown at 15 +/-2 degC at 46 uM measured at 5 days after compound-treated seed germination (reference value: 7.63 +/-0.12 g); type: organism-based; conditions: in vivo, 120 h
[10] = system: Secale cereale; experiment: Toxicity against green Secale cereale (rye) seedlings assessed as dry biomass of seedling grown at 15 +/-2 degC at 46 uM measured at 5 days after compound-treated seed germination (reference value: 1.64 +/-0.03 g); type: organism-based; conditions: in vivo, 120 h
[11] = system: Secale cereale; experiment: Change in alkylresorcinol homologue composition in dry shoots of etiolated Secale cereale (rye) seedlings grown from compound-treated seeds at 29 +/-2 degC assessed as C17:0 content at 46 uM by GC/EI-MS analysis (reference value: 0.48 mg/kg dry weight); type: functional
[12] = system: Secale cereale; experiment: Change in alkylresorcinol homologue composition in dry shoots of etiolated Secale cereale (rye) seedlings grown from compound-treated seeds at 15 +/-2 degC assessed as C17:1 content at 46 uM by GC/EI-MS analysis (reference value: 0.51 mg/kg dry weight); type: functional
[13] = system: Secale cereale; experiment: Change in alkylresorcinol homologue composition in dry shoots of etiolated Secale cereale (rye) seedlings grown from compound-treated seeds at 22 +/-2 degC assessed as C17:1 content at 46 uM by GC/EI-MS analysis (reference value: 0.11 mg/kg dry weight); type: functional
[14] = system: Secale cereale; experiment: Change in alkylresorcinol homologue composition in dry shoots of etiolated Secale cereale (rye) seedlings grown from compound-treated seeds at 29 +/-2 degC assessed as C17:1 content at 46 uM by GC/EI-MS analysis (reference value: 0.05 mg/kg dry weight); type: functional
[15] = system: Secale cereale; experiment: Change in alkylresorcinol homologue composition in dry shoots of etiolated Secale cereale (rye) seedlings grown from compound-treated seeds at 22 +/-2 degC assessed as C23:0 content at 46 uM by GC/EI-MS analysis (reference value: 0.37 mg/kg dry weight); type: functional
[16] = system: Secale cereale; experiment: Change in alkylresorcinol homologue composition in dry shoots of etiolated Secale cereale (rye) seedlings grown from compound-treated seeds at 29 +/-2 degC assessed as C23:1 content at 46 uM by GC/EI-MS analysis; type: functional
[17] = system: Secale cereale; experiment: Change in alkylresorcinol homologue composition in dry shoots of etiolated Secale cereale (rye) seedlings grown from compound-treated seeds at 22 +/-2 degC assessed as C21:0 content at 46 uM by GC/EI-MS analysis (reference value: 1.49 mg/kg dry weight); type: functional
[18] = system: Secale cereale; experiment: Change in alkylresorcinol homologue composition in dry shoots of etiolated Secale cereale (rye) seedlings grown from compound-treated seeds at 29 +/-2 degC assessed as C21:0 content at 46 uM by GC/EI-MS analysis (reference value: 0.96 mg/kg dry weight); type: functional
[19] = system: Secale cereale; experiment: Change in alkylresorcinol homologue composition in dry shoots of etiolated Secale cereale (rye) seedlings grown from compound-treated seeds at 29 +/-2 degC assessed as C19:0 content at 46 uM by GC/EI-MS analysis (reference value: 1.06 mg/kg dry weight); type: functional
[20] = system: Secale cereale; experiment: Change in alkylresorcinol homologue composition in dry shoots of etiolated Secale cereale (rye) seedlings grown from compound-treated seeds at 15 +/-2 degC assessed as C17:0 content at 46 uM by GC/EI-MS analysis (reference value: 3.25 mg/kg dry weight); type: functional
[21] = system: Secale cereale; experiment: Change in alkylresorcinol content in dry shoots of etiolated Secale cereale (rye) seedlings grown from compound-treated seeds at 22 +/-2 degC at 46 uM by thin layer chromatography (reference value: 6.22 +/-0.09 mg/kg dry weight); type: functional
[22] = system: Secale cereale; experiment: Change in alkylresorcinol homologue composition in dry shoots of green Secale cereale (rye) seedlings grown from compound-treated seeds at 29 +/-2 degC assessed as C21:0 content at 46 uM by GC/EI-MS analysis (reference value: 0.20 mg/kg dry weight); type: functional
[23] = system: Secale cereale; experiment: Change in alkylresorcinol homologue composition in dry shoots of green Secale cereale (rye) seedlings grown from compound-treated seeds at 15 +/-2 degC assessed as C21:1 content at 46 uM by GC/EI-MS analysis; type: functional
[24] = system: Secale cereale; experiment: Change in alkylresorcinol homologue composition in dry shoots of green Secale cereale (rye) seedlings grown from compound-treated seeds at 15 +/-2 degC assessed as C19:0 content at 46 uM by GC/EI-MS analysis (reference value: 0.99 mg/kg dry weight); type: functional
[25] = system: Secale cereale; experiment: Change in alkylresorcinol homologue composition in dry shoots of green Secale cereale (rye) seedlings grown from compound-treated seeds at 22 +/-2 degC assessed as C19:0 content at 46 uM by GC/EI-MS analysis (reference value: 0.56 mg/kg dry weight); type: functional
[26] = system: Secale cereale; experiment: Change in alkylresorcinol homologue composition in dry shoots of green Secale cereale (rye) seedlings grown from compound-treated seeds at 29 +/-2 degC assessed as C19:0 content at 46 uM by GC/EI-MS analysis (reference value: 0.48 mg/kg dry weight); type: functional

CCSC(=O)N(CC)C1CCCCC1 [CYCLOATE] was tested. Which Activity [1] did it give?
The Activity was 0.1 mg/kg.

And the Activity [2]?
Its Activity is 0.38 mg/kg.

And the Activity [3]?
Its Activity is 1.64 g.

And the Activity [4]?
The Activity was 4.73 g.

What about the Activity [5] of the same compound?
The Activity was 10.63 g.

What about the Activity [6] of the same compound?
Its Activity is 5.42 mg/kg.

And the Activity [7]?
The Activity was 0.34 mg/kg.

And the Activity [8]?
The Activity was 0.75 mg/kg.

What about the Activity [9] of the same compound?
The Activity was 4.41 g.

And the Activity [10]?
The Activity was 1.12 g.

What about the Activity [11] of the same compound?
The Activity was 5.52 mg/kg.

What about the Activity [12] of the same compound?
The Activity was 1.25 mg/kg.

And the Activity [13]?
The Activity was 0.11 mg/kg.

What about the Activity [14] of the same compound?
Its Activity is 0.98 mg/kg.

And the Activity [15]?
Its Activity is 0.3 mg/kg.

What about the Activity [16] of the same compound?
The Activity was 0.07 mg/kg.

What about the Activity [17] of the same compound?
Its Activity is 0.48 mg/kg.

What about the Activity [18] of the same compound?
The Activity was 1.2 mg/kg.

What about the Activity [19] of the same compound?
Its Activity is 3.74 mg/kg.

And the Activity [20]?
The Activity was 5.74 mg/kg.

What about the Activity [21] of the same compound?
The Activity was 2.94 mg/kg.

And the Activity [22]?
The Activity was 1.34 mg/kg.

And the Activity [23]?
The Activity was 0.19 mg/kg.

And the Activity [24]?
Its Activity is 1.45 mg/kg.

What about the Activity [25] of the same compound?
The Activity was 0.87 mg/kg.

And the Activity [26]?
Its Activity is 3.88 mg/kg.

Reference: ChEMBL document CHEMBL3044624, “Cycloate, an inhibitor of fatty acid elongase, modulates the metabolism of very-long-side-chain alkylresorcinols in rye seedlings” (Pest Manag Sci, 2009)
